Assay results published in patent US4510144A, “Methods of imparting immunomodulating activity with dihydrothiazolo purine derivatives” (Newport Pharmaceuticals International, priority 1982, dated 1985).

Experiments:
Influenza A/USSR 90 = assay: inhibition of influenza virus replication (hemadsorption assay); format: cell-based; conditions: read-out: % inhibition of viral growth
Description: The ability of NPT 16416 to inhibit influenza virus replication was measured using the hemadsorption assay.

[1] = system: Herpes Simplex Virus Type I; assay: inhibition of Herpes Simplex Virus replication; format: cell-based; conditions: read-out: % inhibition of viral growth
[2] = system: antibody production to sheep red blood cells (SRBC); assay: antigen (SRBC) dependent antibody synthesis in vivo (IgM plaques); set-up: species or system Balb/C mice; conditions: for #Ig M plaques (x ± S.E.): saline control 21 ± 1.1; for % change from control, Ig M plaques: Table VIII; for % change from control, antibody response to SRBC: Table X, *P ≤ 0.001 where starred
Description: (3) Antigen (sheep red blood cell, SRBC) dependent antibody synthesis (in vivo)
There is set forth below the standard procedure which should be modified according to the solubility and other properties of the particular compound tested.
1. A solution containing 500 μg/ml NPT is prepared by adding a preweighed amount of the drup powder to sterile BPS (phosphate buffered saline) and sonicating the solution for 30 minutes.
1. NPT drug solution is made by dissolving 500 μg NPT per mil PBS.
1. A 1.4% suspension of agarose in PBS (7 g in 500 ml) is autoclaved for 15 min.
1. Mice are immunized as follows: sheep blood (sheep #23) is received weekly from Hyland labs. It is asceptically collected in two volumes of Alseviers to one volume of blood.
6. The cell count is determined and the stock solution is diluted to 4×10^7 cells/ml. This final suspension is used for immunization.
7. Each mouse is immunized by i.v. injection into the lateral tail vein (warmed in a 50° C. water bath for veinous dilation) with 0.1 ml SRBC (sheep red blood cell) suspensions; the final concentration of SRBC's is 4×10^6 per mouse.
1. Mice are treated by i.p. injection on days […], 1, 2, and 3. A syringe (1 cc) is fitted with a one-half inch, 26 gauge needle. The needle is introduced at a 45° angle along the right side of the linea alba. A 0.2 ml volume is given to both drug and control treated groups.
2. Drug groups are given 0.2 ml of a desired concentration NPT solution which, for a 20 g mouse, is […].
1. Spleens are removed asceptically and placed individually in Falcon #2025 tissue culture tubes containing 3 ml MEM. The tubes are then stored on ice.
2. Spleens are homogenized in the same tube with a teflon pestle attached to a G. K. Heller variable speed reversible motor connected with a G. K. Heller GT-21 motor controller setting #6.
6. The cell count is obtained and the stock suspension is diluted to 1×10^7 cells/ml. The Coulter counter threshhold is set at 10. Red cells are lysed with three drops of Zap isoton.
1. Thirty-five hundredths gram agarose and 0.53 grams MEM powder are placed into an Erlenmeyer flask. Fifty ml of distilled H2 O is then added to the flask.
1. Five ml sheep blood (same batch as used for immunization) is washed three times in PBS using an IEC Clinical Standard Centrifuge, speed #4 (2800 RPM) for 10 min.
1. Agar plates are removed from refrigerator and allowed to warm to room temperature. They are labeled in triplicate for each experimental group.
2. Agar-filled tubes are removed from the water bath. One-tenth of the 10% SRBC's and 0.1 ml spleen cell suspension are added to each agar tube. The tubes are agitated on a Vortex mixer.
3. The contents of the tubes are poured immediately into agar base plates and swirled until a smooth layer is formed. The plates are placed on a level surface until the agar solidifies.
4. The plates are incubated at 37° C. in a humidified atmosphere of 5% CO2 and 95% air for 90 min.
6. Plates are removed from incubator and 1 ml of the diluted complement is added to each plate.
7. Plates are then incubated another 30-45 minutes at 37° C. Plates are then removed from incubator and counted using oblique light.

[3] = system: splenocytes from athymic mice (theta positive cells); assay: induction of theta positive cells in splenocytes from athymic (nude) mice in vitro; format: cell-based; conditions: for percent of theta positive cells: mean of three experiments, saline control 8
Text: (4) Induction of theta positive cells in nude mice (in vitro).

[4] = preliminary toxicity studies in Balb/C mice; format: in vivo
Description: If it is assumed 50 mg/kg is the minimum lethal dose and it is assumed <0.05 mg/kg is the minimum effective dose, the lowest possible therapeutic ratio for NPT 16416 is 50/0.05 or 1000/1.0. It is believed that the toxicity is far less by the oral route since 500 mg/kg p.o. produced no deaths in Balb/c mice.

[5] = system: lymphocytes from normal volunteers (active E-rosettes); assay: enhancement of active E-rosettes, lymphocytes from normal volunteers in vitro; format: cell-based; conditions: for % E-rosettes (active): control 37
Description: The effects of NPT 16416 on stimulating formation of active rosettes when incubated with lymphocytes in vitro from normal volunteers is described in Table XII. It is important to note that 5×10^-8M concentration of NPT 16416 is capable of producing a 36.5% enhancement of Active E-Rosettes. The enhancement of Active E-Rosettes is biologically important because that fraction of lymphocytes (T-cells) which are the active rosettes are found to be deficient in tumor patients and virus infected individuals. Restoration of this deficiency should benefit the patient.

## Oc1ncnc2c1nc1n2CCS1 [NPT 16416, 3-hydroxy-7,8-dihydrothiazolo-[3,2e]-purine]
Influenza A/USSR 90; 0.1 μg/ml
  inhibition at 0.1 µg/mL: 54%
Influenza A/USSR 90; 0.5 μg/ml
  inhibition at 0.5 µg/mL: 59%
Influenza A/USSR 90; 75 μg/ml
  inhibition at 75 µg/mL: 78%
Influenza A/USSR 90; NPT 16416 0.05 μg/ml
  inhibition at 0.05 µg/mL: 48%
[1]; 37.5 μg/ml
  inhibition at 37.5 µg/mL: 33%
[1]; 75 μg/ml
  inhibition at 75 µg/mL: 61%
[1]; 150 μg/ml
  inhibition at 150 µg/mL: 65%
[2]; 0.05 mg/kg i.p.
  #Ig M plaques (x ± S.E.): 39 ± 3.34
  % change from control, Ig M plaques: +88%
[2]; 0.5 mg/kg i.p.
  #Ig M plaques (x ± S.E.): 35 ± 2.06
  % change from control, Ig M plaques: +66%
[2]; 5.0 mg/kg i.p.
  #Ig M plaques (x ± S.E.): 9 ± 0.37
  % change from control, Ig M plaques: -58%
[2]; SRBC immunized mice
  effect on antibody production in vivo, in words: enhancement of production of specific antibodies in vivo
[2]; 0.5 mg/kg
  % change from control, antibody response to SRBC: +66%
[2]; 5.0 mg/kg, NPT 16485 N.S.
  % change from control, antibody response to SRBC: -80%
[2]; mice, 0.05 mg/kg
  enhancement of antibody production to SRBC: 88-226%
[3]; .005-.01 μg/ml
  percent of theta positive cells: 14%
[3]; .05-.1 μg/ml
  percent of theta positive cells: 18%
[3]; .5-1.0 μg/ml
  percent of theta positive cells: 17%
[3]; in vitro
  production of theta positive (T) cells, in words: able to cause the production of T-cells from a T-cell deficient population
[3]; spleen cells from athymic mice, in vitro
  increase of theta positive cells over control values: 125%
[4]; 50 mg/kg i.p., Balb/C mice
  mortality: no mortality
[4]; 500 mg/kg p.o., Balb/c mice
  deaths: no deaths
[5]; 5 × 10^-5 M
  % E-rosettes (active): 43%
[5]; 5 × 10^-7 M
  % E-rosettes (active): 55.5%
[5]; 5 × 10^-8 M
  % E-rosettes (active): 62.5%
[5]; 5 × 10^-9 M
  % E-rosettes (active): 58.5%
[5]; 5 × 10^-10 M
  % E-rosettes (active): 42%
[5]; Homo sapiens, Lymphocyte, 5 × 10^-5 M, read-out: % increase of active E-rosettes
  activation at 50 µM: 10%
[5]; Homo sapiens, Lymphocyte, 5 × 10^-7 M, read-out: % increase of active E-rosettes
  activation at 0.5 µM: 23%
[5]; Homo sapiens, Lymphocyte, 5 × 10^-8 M, read-out: % increase of active E-rosettes
  activation at 0.05 µM: 36.5%
[5]; Homo sapiens, Lymphocyte, 5 × 10^-9 M, read-out: % increase of active E-rosettes
  activation at 0.005 µM: 34%
[5]; Homo sapiens, Lymphocyte, 5 × 10^-10 M, read-out: % increase of active E-rosettes
  activation at 0.0005 µM: 7.6%
